The test system of one test is Enterococcus faecalis. Nature of the test: Antibacterial activity against Enterococcus faecalis ATCC 35550 assessed as reduction in bacterial growth measured after 18 to 24 hrs by broth microdilution method. As to conditions: time 18-24 hrs. The format is functional. Background: In broth dilution the organism is exposed to a series of concentrations in liquid medium.

In the next test the test system is Bacillus subtilis. Briefly: Antibacterial activity against Bacillus subtilis IITKSM1 assessed as reduction in bacterial growth measured after 18 to 24 hrs by broth microdilution method. Particulars: time 18-24 hrs. The test is classed as functional.
Test [1] concerns Staphylococcus aureus. Nature of the test: Antibacterial activity against Staphylococcus aureus ATCC 29213 assessed as reduction in bacterial growth measured after 18 to 24 hrs by broth microdilution method. Particulars: time 18-24 hrs. The format is functional.
Another test has as its system Klebsiella pneumoniae. Briefly: Antibacterial activity against Klebsiella pneumoniae BAA 1705 assessed as reduction in bacterial growth measured after 18 to 24 hrs by broth microdilution method. The format is functional. As to conditions: time 18-24 hrs.
For a further test, the system named is Acinetobacter baumannii. Briefly: Antibacterial activity against Acinetobacter baumannii BAA 1605 assessed as reduction in bacterial growth measured after 18 to 24 hrs by broth microdilution method. The test is classed as functional. As to conditions: time 18-24 hrs.
A further test relates to Pseudomonas aeruginosa. Nature of the test: Antibacterial activity against Pseudomonas aeruginosa ATCC 27853 assessed as reduction in bacterial growth measured after 18 to 24 hrs by broth microdilution method. The test is classed as functional. Particulars: time 18-24 hrs.
The test system of another test is Escherichia coli. Nature of the test: Antibacterial activity against Escherichia coli ATCC 25922 assessed as reduction in bacterial growth measured after 18 to 24 hrs by broth microdilution method. The format is functional. Particulars: time 18-24 hrs.
The subject of test [2] is Staphylococcus aureus. Nature of the test: Antibacterial activity against methicillin-sensitive Staphylococcus aureus ATCC 29213 assessed as reduction in bacterial growth measured after 18 to 24 hrs by broth microdilution method. The format is functional. As to conditions: time 18-24 hrs.
In test [3] the test system is Staphylococcus aureus. Nature of the test: Antibacterial activity against methicillin-resistant Staphylococcus aureus NRS 100 assessed as reduction in bacterial growth measured after 18 to 24 hrs by broth microdilution method. The test is classed as functional. Particulars: time 18-24 hrs.
The test system of test [4] is Staphylococcus aureus. Nature of the test: Antibacterial activity against methicillin-resistant Staphylococcus aureus NRS 119 assessed as reduction in bacterial growth measured after 18 to 24 hrs by broth microdilution method. The format is functional. As to conditions: time 18-24 hrs.
The test system of test [5] is Staphylococcus aureus. Nature of the test: Antibacterial activity against methicillin-resistant Staphylococcus aureus NRS 129 assessed as reduction in bacterial growth measured after 18 to 24 hrs by broth microdilution method. The test is classed as functional. Particulars: time 18-24 hrs.
Test [6] deals with Staphylococcus aureus. Briefly: Antibacterial activity against methicillin-resistant Staphylococcus aureus NRS 186 assessed as reduction in bacterial growth measured after 18 to 24 hrs by broth microdilution method. The test is classed as functional. Particulars: time 18-24 hrs.
Test [7] concerns Staphylococcus aureus. Briefly: Antibacterial activity against methicillin-resistant Staphylococcus aureus NRS 191 assessed as reduction in bacterial growth measured after 18 to 24 hrs by broth microdilution method. The format is functional. Particulars: time 18-24 hrs.
In test [8] the test system is Staphylococcus aureus. Briefly: Antibacterial activity against methicillin-resistant Staphylococcus aureus NRS 192 assessed as reduction in bacterial growth measured after 18 to 24 hrs by broth microdilution method. As to conditions: time 18-24 hrs. The test is classed as functional.
Test [9] relates to Staphylococcus aureus. Briefly: Antibacterial activity against methicillin-resistant Staphylococcus aureus NRS 193 assessed as reduction in bacterial growth measured after 18 to 24 hrs by broth microdilution method. The format is functional. Particulars: time 18-24 hrs.
For test [10], the system named is Staphylococcus aureus. Briefly: Antibacterial activity against methicillin-resistant Staphylococcus aureus NRS 194 assessed as reduction in bacterial growth measured after 18 to 24 hrs by broth microdilution method. The format is functional. As to conditions: time 18-24 hrs.
In test [11] the test system is Staphylococcus aureus. Nature of the test: Antibacterial activity against methicillin-resistant Staphylococcus aureus NRS 198 assessed as reduction in bacterial growth measured after 18 to 24 hrs by broth microdilution method. The format is functional. Particulars: time 18-24 hrs.
Test [12] relates to Staphylococcus aureus. Briefly: Antibacterial activity against vacomycin-resistant Staphylococcus aureus VRS 1 assessed as reduction in bacterial growth measured after 18 to 24 hrs by broth microdilution method. The test is classed as functional. As to conditions: time 18-24 hrs.
Test [13] relates to Staphylococcus aureus. Nature of the test: Antibacterial activity against vacomycin-resistant Staphylococcus aureus VRS 4 assessed as reduction in bacterial growth measured after 18 to 24 hrs by broth microdilution method. The format is functional. As to conditions: time 18-24 hrs.
Test [14] relates to Staphylococcus aureus. Nature of the test: Antibacterial activity against vacomycin-resistant Staphylococcus aureus VRS 12 assessed as reduction in bacterial growth measured after 18 to 24 hrs by broth microdilution method. The test is classed as functional. As to conditions: time 18-24 hrs.
Test [15] relates to Staphylococcus aureus. Nature of the test: Inhibition of biofilm in Staphylococcus aureus ATCC 29213 at 1 times MIC measured after 12 hrs by crystal violet staining based analysis relative to control. The format is functional.
Test [16] concerns Staphylococcus aureus. Nature of the test: Inhibition of biofilm in Staphylococcus aureus ATCC 29213 at 0.5 times MIC measured after 12 hrs by crystal violet staining based analysis relative to control. The test is classed as functional.
In test [17] the test system is Staphylococcus aureus. Nature of the test: Inhibition of biofilm in Staphylococcus aureus ATCC 29213 at 2 times MIC measured after 12 hrs by crystal violet staining based analysis relative to control. The format is functional.
Test [18] deals with Staphylococcus aureus. Briefly: Inhibition of biofilm in Staphylococcus aureus ATCC 29213 at 2 ug/ml measured after 12 hrs by crystal violet staining based analysis. The format is functional, organism-based. Particulars: dose 2.0 µg/ml.
In test [19] the test system is Staphylococcus aureus. Briefly: Induction of morphological changes in Staphylococcus aureus ATCC 29213 assessed as cell shrinkage at 10 times MIC measured after 4 hrs by atomic force microscopy based analysis (reference value: 60.170 nanometer). The format is functional.

Values after ≈ are worked out from the molar mass of the structure shown. Active and inactive are the calls of the source. The rule behind the calls is not given here.

The MIC is the lowest concentration that inhibits growth of the organism.

For the compound `CC(C)(C)c1cc(C(c2ccc(F)cc2)c2ccc(F)cc2)c(NC(=O)c2cccc(C(=O)O)c2)c(C(c2ccc(F)cc2)c2ccc(F)cc2)c1`, the MIC in the test with Enterococcus faecalis is 1 µg/mL (≈ 1.42 µM); in the test on Bacillus subtilis it was 1 µg/mL (≈ 1.42 µM); in the test on Staphylococcus aureus [1], 2 µg/mL (≈ 2.85 µM); with Klebsiella pneumoniae, greater than 64 µg/mL; with Acinetobacter baumannii it was greater than 64 µg/mL; in the test on Pseudomonas aeruginosa it was greater than 64 µg/mL. The MIC with Escherichia coli was greater than 64 µg/mL; in the test with Staphylococcus aureus [2], 2 µg/mL (≈ 2.85 µM); in the test with Staphylococcus aureus [3], 2 µg/mL (≈ 2.85 µM); in the test on Staphylococcus aureus [4], 2 µg/mL (≈ 2.85 µM); in the test on Staphylococcus aureus [5] it was 2 µg/mL (≈ 2.85 µM); in the test with Staphylococcus aureus [6] it was 2 µg/mL (≈ 2.85 µM). The MIC in the test on Staphylococcus aureus [7], with Staphylococcus aureus [8], in the test on Staphylococcus aureus [9], with Staphylococcus aureus [10], with Staphylococcus aureus [11] and in the test on Staphylococcus aureus [12] was 2 µg/mL (≈ 2.85 µM) throughout. Besides, the MIC with Staphylococcus aureus [13] and in the test with Staphylococcus aureus [14] was 2 µg/mL (≈ 2.85 µM) throughout. Further, the “inhibition (INH)” value in the test on Staphylococcus aureus [15] is 95%; in the test with Staphylococcus aureus [16] it was greater than 50%; in the test on Staphylococcus aureus [17] it was 95%. Also, the inhibition entry with Staphylococcus aureus [18] is “Active”.

For the compound `O=C(O)c1cccc(C(=O)Nc2c(C(c3ccccc3)c3ccccc3)cc(Cl)cc2C(c2ccccc2)c2ccccc2)c1`, the MIC in the test on Enterococcus faecalis is 1 µg/mL (≈ 1.64 µM); in the test with Bacillus subtilis, 2 µg/mL (≈ 3.29 µM); in the test on Staphylococcus aureus [1], 2 µg/mL (≈ 3.29 µM); with Klebsiella pneumoniae, greater than 64 µg/mL; in the test on Acinetobacter baumannii, greater than 64 µg/mL; in the test on Pseudomonas aeruginosa, greater than 64 µg/mL. The MIC with Escherichia coli is greater than 64 µg/mL; with Staphylococcus aureus [2] it was 4 µg/mL (≈ 6.58 µM); in the test on Staphylococcus aureus [3], 4 µg/mL (≈ 6.58 µM); in the test with Staphylococcus aureus [4] it was 4 µg/mL (≈ 6.58 µM); in the test on Staphylococcus aureus [5], 4 µg/mL (≈ 6.58 µM); with Staphylococcus aureus [6], 4 µg/mL (≈ 6.58 µM). Moreover, the MIC with Staphylococcus aureus [7] worked out at 4 µg/mL (≈ 6.58 µM); in the test on Staphylococcus aureus [8], 4 µg/mL (≈ 6.58 µM); with Staphylococcus aureus [9] it was 8 µg/mL (≈ 13.2 µM); in the test with Staphylococcus aureus [10], 8 µg/mL (≈ 13.2 µM); in the test on Staphylococcus aureus [11] it was 8 µg/mL (≈ 13.2 µM); with Staphylococcus aureus [12], 4 µg/mL (≈ 6.58 µM). In addition, the MIC in the test on Staphylococcus aureus [13] and in the test with Staphylococcus aureus [14] was 4 µg/mL (≈ 6.58 µM) throughout. Moreover, the results for the “inhibition (INH)” value in the test with Staphylococcus aureus [15], in the test on Staphylococcus aureus [16] and in the test with Staphylococcus aureus [17] were 96%, greater than 50% and 95%, respectively. Besides, the inhibition entry with Staphylococcus aureus [18] is “Active”.

`CC1(C)S[C@@H]2[C@H](NC(=O)[C@H](N)c3ccccc3)C(=O)N2[C@H]1C(=O)O` [AMPICILLIN]: the Activity in the test on Staphylococcus aureus [19] stood at 36.075 nm.

Values taken from ChEMBL document CHEMBL6177993, “De Novo 3-(Phenylcarbamoyl) Benzoate Analogues: Efficacy against Multidrug-Resistant S. aureus and Elucidation of the Biodistribution Profile” (J Med Chem, 2025).
